A short description of data set [1]: Stability analysis of DDD599/BPCA (pH buffers, simulated gastric fluid, glutathione). Format: physicochemical. How it is done: (§1) DMPK analyses were performed by the Dundee University Drug Discovery Unit and BPCA/DDD599 stability analysis were undertaken by chemists at GlaxoSmithKline using in-house, standardised approaches.
123 Supplementary Table 1. Stability analysis of DDD599/BPCA pH10 Ox pH10 pH6 Ox pH6 pH4 Ox pH4 SGF Ox SGF GSH
Additionally, it was also tested in the presence of glutathione. Green text denoted acceptable 127 stability and red text denotes unacceptable stability under test conditions. At pH10 regardless of the presence of 128 H2O2, DDD599/BPCA was unfavourably unstable. […]

Data set [2] in a line: Pharmacokinetic analysis in naïve mice. Format: in vivo, BALB/c mice. Here is the method: DDD291 and DDD881 were then evaluated for in vivo transmission-blocking activity in a mouse model of transmission. […] DDD881 was also administered similarly on day 4 of infection only 30 min prior to mosquito feed in a separate cohort of mice (Supplementary Data 5).
Eight phenylhydrazine-treated mice were infected with P. berghei constitutively expressing GFP. On day 3 of infection, they were assigned into four groups of two mice (DMSO A + B; DDD291 A + B; DDD881 A + B and C + D). Three groups received either 50 mg kg^−1 DDD291, 50 mg kg^−1 DDD881 or DMSO + vehicle control by IP injection. […] The fourth group received a 50 mg kg^−1 DDD881 dose on day 4, 30 min prior to mosquito feed. c Seven days after feeding, mosquitoes were dissected (n = 17–52 per condition) and oocysts recorded by fluorescent microscopy and automated image analysis. Horizontal bars indicate the mean. d PK analysis of DDD881. BALB/c mice were dosed with 50 mg kg^−1 DDD881 (n = 3) and plasma concentrations were monitored over time.

In data set [3] the test system is P. falciparum transmission to Anopheles stephensi mosquitoes. Description: P. falciparum standard membrane-feeding assay (SMFA), luciferase oocyst readout. The format is in vivo, Plasmodium falciparum. Particulars: 10 µM.
Data set [4] can be described thus: Parallel artificial membrane permeability assay (PAMPA). Format: in vitro ADME. How it is done: as §1
Data set [5] in a line: Mouse liver microsome clearance. The format is in vitro ADME. Here is the method: as §1
On the technique in general: Liver microsomes are vesicles of endoplasmic reticulum, rich in cytochrome P450 enzymes.

Setting [6] is: mouse, plasma, intraperitoneal, 50 mg kg^−1, BALB/c mice, n = 3.

The amount remaining is what is left of the initial amount, in per cent. A word on the half-life: it is how long it takes for the measured level to halve. Take `O=C(CCl)Nc1ccc(Br)cc1` [BPCA, N-(4-bromophenyl)-2-chloroacetamide]: the share remaining at 24 h in data set [1] (Britton Robinson pH4 buffer + 20M% H2O2, pH 4, pH4 Ox) is 100%; in data set [1] (Britton Robinson pH4 buffer, pH 4) it was 100%; in data set [1] (Britton Robinson pH6 buffer + 20M% H2O2, pH 6, pH6 Ox), 100%; in data set [1] (Britton Robinson pH6 buffer, pH 6) it was 100%; in data set [1] (Britton Robinson pH10 buffer + 20M% H2O2, pH 10, pH10 Ox), 87%; in data set [1] (Britton Robinson pH10 buffer, pH 10) it was 87%. Further, the amount remaining at 24 h was 0% in data set [1] (Phosphate buffer pH7.4 with 5mM Glutathione, pH 7.4, GSH); 99% in data set [1] (Simulated Gastric Fluid + 20M% H2O2, SGF Ox); 98% in data set [1] (Simulated Gastric Fluid, SGF). The half-life was above 41.7 days in data set [1] (Britton Robinson pH4 buffer, pH 4, pH4 = Britton Robinson pH4); 25.3 days in data set [1] (SGF = Simulated Gastric Fluid); above 41.7 days in data set [1] (SGF Ox = Simulated Gastric Fluid + 20M% H2O2); above 41.7 days in data set [1] (pH 4, pH4 Ox = Britton Robinson pH4 buffer + 20M% H2O2); above 41.7 days in data set [1] (pH 6, pH6 = Britton Robinson pH6 buffer); above 41.7 days in data set [1] (pH 6, pH6 Ox = Britton Robinson pH6 buffer + 20M% H2O2). In addition, the half-life in data set [1] (pH 7.4, GSH = Phosphate buffer pH7.4 with 5mM Glutathione) is below 0.0417 days; in data set [1] (pH 10, pH10 = Britton Robinson pH10 buffer), 3.92 days; in data set [1] (pH 10, pH10 Ox = Britton Robinson pH10 buffer + 20M% H2O2), 3.83 days. Further, the “t10% degradation / hours” value is below 1 h in data set [1] (GSH); 118 h in data set [1] (SGF); 512 h in data set [1] (SGF Ox); above 1000 h in data set [1] (pH4); above 1000 h in data set [1] (pH4 Ox); above 1000 h in data set [1] (pH6). Also, the “t10% degradation / hours” value in data set [1] (pH6 Ox) was above 1000 h; in data set [1] (pH10), 18 h; in data set [1] (pH10 Ox), 18 h.
The Cmax is the highest concentration seen after dosing. Usually Tmax stands for the time at which the peak concentration occurs. For `O=S(=O)(NCC1(O)CCOc2ccccc21)c1ccc(Br)s1` (stereo not drawn) [DDD01035881], in data set [2] (50 mg kg^−1, up to 120 min after dosing), the plasma concentration is recorded as ~ 1000 ng ml^−1. Further, in data set [2] (setting [6]), the peak level (Cmax) was 1580 ng/mL and the Tmax was found to be 0.00346 days. In data set [3] (direct mode), the “mean normalised luciferase intensity” value turned out to be 0.26 and the “prevalence, % of DMSO control” value was 0.49%. In data set [3] (mode direct, per experiment), this compound returned an Average oocyst intensity of 2.8 and a Prevalence of 0.0%.
The Papp is a coefficient for how fast a substance crosses the barrier. In turn, `OC1(CN2CCC(Oc3cccc(C(F)(F)F)c3)CC2)CCNC1` (stereo not drawn) [DDD01245291] yielded a Papp in data set [4] of 0.59 ×10⁻⁶ cm/s. Also, the “mouse liver microsome clearance rate” value in data set [5] stood at 4.2 ml min^−1 g^−1 Liver.
